In patent publication US20220251141A1, “IMMUNOMODULATORS” (Bristol-Myers Squibb Company, priority 2019, published 2022) one finds IC50 data, which are given here for twelve molecules.

Numbered stars: 1 amine (or outer) side, 2 acyl side, 3 side chain; on linkers, the order of the positions; unused ones are H or OH. Bridge positions count the residues as written; N and C are the ends. Square brackets hold non-standard residues; d marks the D form. Side chains are listed from the residue outwards. Peptide text beside a SMILES is read from it. * marks the point of attachment. Trp(1-CH2CO2Me) = COC(=O)Cn1cc(C[C@H](N)C(=O)O)c2ccccc21; Trp(1-CH2COOH) = N[C@@H](Cc1cn(CC(=O)O)c2ccccc12)C(=O)O; Trp(1-Me) = Cn1cc(C[C@H](N)C(=O)O)c2ccccc21; NH(1R-phenylethyl) = C[C@@H](N*)c1ccccc1; Phe(4-F) = N[C@@H](Cc1ccc(F)cc1)C(=O)O; NHCH2CHPh2 = c1ccc(C(CN*)c2ccccc2)cc1; Dab(CONH2) = NC(=O)NCC[C@H](N)C(=O)O; Hyp = O=C(O)[C@@H]1C[C@@H](O)CN1; NHcycloheptyl = C1CCCC(N*)CC1; NMeNle = CCCC[C@H](NC)C(=O)O; Pen = CC(C)(S)[C@H](N)C(=O)O; Decanoyl = CCCCCCCCCC(=O)*; Pip = O=C(O)[C@@H]1CCCCN1; NMeA = CN[C@@H](C)C(=O)O; Dab = NCC[C@H](N)C(=O)O; Dap = NC[C@H](N)C(=O)O; Boc = CC(C)(C)OC(=O)*; CO = O=C([*:1])[*:2]; Piv = CC(C)(C)C(=O)*

The target of the test is T1, PD-1/PD-L1 (Homo sapiens, UniProt Q9NZQ7).
T1 construct: TVMV protease site linker (C); made in house; host or cells: HEK293T cells
Put plainly: PD-1/PD-L1 Homogenous Time-Resolved Fluorescence (HTRF) binding assay. The note with it: PD-L1-His 10 nM final, PD-1-Ig 20 nM final; inhibitors pre-incubated with PD-L1-His for 15 m. The text has this: The ability of the compounds of formula (I) to bind to PD-L1 was investigated using a PD-1/PD-L1 Homogenous Time-Resolved Fluorescence (HTRF) binding assay.
The interaction of PD-1 and PD-L1 can be assessed using soluble, purified preparations of the extracellular domains of the two proteins. The PD-1 and PD-L1 protein extracellular domains were expressed as fusion proteins with detection tags, for PD-1, the tag was the Fc portion of Immunoglobulin (PD-1-Ig) and for PD-L1 it was the 6 histidine motif (PD-L1-His). All binding studies were performed in an HTRF assay buffer consisting of dPBS supplemented with 0.1% […] bovine serum albumin and 0.05% (v/v) Tween-20. For the h/PD-L1-His binding assay, inhibitors were pre-incubated with PD-L1-His (10 nM final) for 15 m in 4 μl of assay buffer, followed by addition of PD-1-Ig (20 nM final) in 1 μl of assay buffer and further incubation for 15 m. HTRF detection was achieved using europium cryptate-labeled anti-Ig (1 nM final) and allophycocyanin (APC) labeled anti-His (20 nM final). Antibodies were diluted in HTRF detection buffer and 5 μl was dispensed on top of the binding reaction. The reaction mixture was allowed to equilibrate for 30 minutes and the resulting signal (665 nm/620 nm ratio) was obtained using an EnVision fluorometer. Additional binding assays were established between the human proteins PD-1-Ig/PD-L2-His (20 & 5 nM, respectively) and CD80-His/PD-L1-Ig (100 & 10 nM, respectively).
Recombinant Proteins: Human PD-1 (25-167) with a C-terminal human Fc domain of immunoglobulin G (Ig) epitope tag [hPD-1 (25-167)-3S-IG] and human PD-L1 (18-239) with a C-terminal His epitope tag [hPD-L1(18-239)-TVMV-His] were expressed in HEK293T cells and purified sequentially by Protein A affinity chromatography and size exclusion chromatography. Human PD-L2-His and CD80-His was obtained through commercial sources.
Table 3 lists the IC50 values for representative examples of this disclosure measured in the PD-1/PD-L1 Homogenous Time-Resolved Fluorescence (HTRF) binding assay.
For `CCCC[C@H]1C(=O)N(C)[C@@H](CCCC)C(=O)N[C@@H](CC(C)C)C(=O)N[C@H](C(=O)NCC(N)=O)CSCC(=O)N[C@@H](Cc2ccc(O)cc2)C(=O)N(C)[C@@H](C)C(=O)N[C@@H](CC(N)=O)C(=O)N2CCC[C@H]2C(=O)N[C@@H](CNC(=O)NC2CCCCCC2)C(=O)N[C@@H](CC(C)C)C(=O)N2C[C@H](O)C[C@H]2C(=O)N[C@@H](Cc2c[nH]c3ccccc23)C(=O)N[C@@H](CCNC(=O)NC2CCCCCC2)C(=O)N[C@@H](Cc2cn(CC(=O)O)c3ccccc23)C(=O)N1C` [Example 1045] ({CH2CO}-Y[NMeA]NP[Dap]([CO-NHcycloheptyl])L[Hyp]W[Dab]([CO-NHcycloheptyl])[Trp(1-CH2COOH)][NMeNle][NMeNle]LCG-NH2; thioether N-14), the IC50 was 4.6 nM.
`CCCC[C@H]1C(=O)N(C)[C@@H](CCCC)C(=O)N[C@@H](CC(C)C)C(=O)N[C@H](C(=O)NCC(N)=O)CSCC(=O)N[C@@H](Cc2ccc(O)cc2)C(=O)N(C)[C@@H](C)C(=O)N[C@@H](CC(N)=O)C(=O)N2CCC[C@H]2C(=O)N[C@@H](CNC(=O)N[C@H](C)c2ccccc2)C(=O)N[C@@H](CC(C)C)C(=O)N2C[C@H](O)C[C@H]2C(=O)N[C@@H](Cc2c[nH]c3ccccc23)C(=O)N[C@@H](CCN)C(=O)N[C@@H](Cc2cn(CC(=O)O)c3ccccc23)C(=O)N1C` [Example 1041] ({CH2CO}-Y[NMeA]NP[Dap]([CO-NH(1R-phenylethyl)])L[Hyp]W[Dab][Trp(1-CH2COOH)][NMeNle][NMeNle]LCG-NH2; thioether N-14) came in with an IC50 of 4.4 nM.
As for `CCCC[C@H]1C(=O)N(C)[C@@H](CCCC)C(=O)N[C@@H](CCC(N)=O)C(=O)N[C@H](C(N)=O)C(C)SCC(=O)N[C@@H](Cc2ccc(F)cc2)C(=O)N2CCCC[C@H]2C(=O)N[C@@H](CC(N)=O)C(=O)N2CCC[C@H]2C(=O)N[C@@H](CNC(=O)C(C)(C)C)C(=O)N[C@@H](C(C)C)C(=O)N2C[C@H](O)C[C@H]2C(=O)N[C@@H](Cc2c[nH]c3ccccc23)C(=O)N[C@@H](CCN)C(=O)N[C@@H](Cc2cn(C)c3ccccc23)C(=O)N1C` (stereo partly drawn) [Example 20220], the IC50 worked out at 16.6 nM.
To `CCCC[C@H]1C(=O)N(C)[C@@H](CCCC)C(=O)N[C@@H](CCC(=O)O)C(=O)N[C@H](C(N)=O)CSCC(=O)N[C@@H](Cc2ccc(F)cc2)C(=O)N2CCCC[C@H]2C(=O)N[C@@H](CC(=O)O)C(=O)N2CCC[C@H]2C(=O)N[C@@H](CNC(=O)C(C)(C)C)C(=O)N[C@@H](CC(C)C)C(=O)N2C[C@H](O)C[C@H]2C(=O)N[C@@H](Cc2c[nH]c3ccccc23)C(=O)N[C@@H](CCNC(=O)C(C)(C)C)C(=O)N[C@@H](Cc2cn(CC(=O)O)c3ccccc23)C(=O)N1C` [Example 20070] ({CH2CO}-[Phe(4-F)][Pip]DP[Dap](Piv)L[Hyp]W[Dab](Piv)[Trp(1-CH2COOH)][NMeNle][NMeNle]EC-NH2; thioether N-14) belongs 10.5 nM.
The molecule `CCCC[C@H]1C(=O)N(C)[C@@H](CCCC)C(=O)N[C@@H](CC(C)C)C(=O)N[C@H](C(=O)NCC(N)=O)CSCC(=O)N[C@@H](Cc2ccc(O)cc2)C(=O)N(C)[C@@H](C)C(=O)N[C@@H](CC(N)=O)C(=O)N2CCC[C@H]2C(=O)N[C@@H](CNC(=O)OC(C)(C)C)C(=O)N[C@@H](CC(C)C)C(=O)N2C[C@H](O)C[C@H]2C(=O)N[C@@H](Cc2c[nH]c3ccccc23)C(=O)N[C@@H](CCNC(N)=O)C(=O)N[C@@H](Cc2cn(CC(=O)O)c3ccccc23)C(=O)N1C` [Example 1018] ({CH2CO}-Y[NMeA]NP[Dap](Boc)L[Hyp]W[Dab(CONH2)][Trp(1-CH2COOH)][NMeNle][NMeNle]LCG-NH2; thioether N-14) displayed an IC50 of 2.9 nM.
In turn, `CCCC[C@H]1C(=O)N(C)[C@@H](CCCC)C(=O)N[C@@H](CC(C)C)C(=O)N[C@H](C(=O)NCC(N)=O)CSCC(=O)N[C@@H](Cc2ccc(O)cc2)C(=O)N(C)[C@@H](C)C(=O)N[C@@H](CC(N)=O)C(=O)N2CCC[C@H]2C(=O)N[C@@H](CNC(=O)NCC)C(=O)N[C@@H](CC(C)C)C(=O)N2C[C@H](O)C[C@H]2C(=O)N[C@@H](Cc2c[nH]c3ccccc23)C(=O)N[C@@H](CCNC(=O)NCC)C(=O)N[C@@H](Cc2cn(CC(=O)O)c3ccccc23)C(=O)N1C` [Example 1029] ({CH2CO}-Y[NMeA]NP[Dap]([CO-NHEt])L[Hyp]W[Dab]([CO-NHEt])[Trp(1-CH2COOH)][NMeNle][NMeNle]LCG-NH2; thioether N-14) had a 50% inhibitory concentration (IC50) of 4.9 nM.
`CCCC[C@H]1C(=O)N(C)[C@@H](CCCC)C(=O)N[C@@H](CC(C)C)C(=O)N[C@H](C(N)=O)C(C)(C)SCC(=O)N[C@@H](Cc2ccc(F)cc2)C(=O)N2CCCC[C@H]2C(=O)N[C@@H](CC(N)=O)C(=O)N2CCC[C@H]2C(=O)N[C@@H](CNC(=O)C(C)(C)C)C(=O)N[C@@H](CC(C)C)C(=O)N2C[C@H](O)C[C@H]2C(=O)N[C@@H](Cc2c[nH]c3ccccc23)C(=O)N[C@@H](CCN)C(=O)N[C@@H](Cc2cn(C)c3ccccc23)C(=O)N1C` [Example 20120] ({CH2CO}-[Phe(4-F)][Pip]NP[Dap](Piv)L[Hyp]W[Dab][Trp(1-Me)][NMeNle][NMeNle]L[Pen]-NH2; thioether N-14) displayed an IC50 of 11.8 nM.
Next, `CCCC[C@H]1C(=O)N(C)[C@@H](CCCC)C(=O)N[C@@H](CCC(=O)O)C(=O)N[C@H](C(N)=O)CSCC(=O)N[C@@H](Cc2ccc(F)cc2)C(=O)N2CCCC[C@H]2C(=O)N[C@@H](CC(N)=O)C(=O)N2CCC[C@H]2C(=O)N[C@@H](CNC(=O)C(C)(C)C)C(=O)N[C@@H](CC(C)C)C(=O)N2C[C@H](O)C[C@H]2C(=O)N[C@@H](Cc2c[nH]c3ccccc23)C(=O)N[C@@H](CCN)C(=O)N[C@@H](Cc2cn(C)c3ccccc23)C(=O)N1C` [Example 20270] ({CH2CO}-[Phe(4-F)][Pip]NP[Dap](Piv)L[Hyp]W[Dab][Trp(1-Me)][NMeNle][NMeNle]EC-NH2; thioether N-14): 43.2 nM.
Next, `CCCC[C@H]1C(=O)N(C)[C@@H](CCCC)C(=O)N[C@@H](CC(C)C)C(=O)N[C@H](C(N)=O)CSCC(=O)N[C@@H](Cc2ccc(F)cc2)C(=O)N2CCCC[C@H]2C(=O)N[C@@H](CC(=O)O)C(=O)N2CCC[C@H]2C(=O)N[C@@H](CNC(=O)OC(C)(C)C)C(=O)N[C@@H](CC(C)C)C(=O)N2C[C@H](O)C[C@H]2C(=O)N[C@@H](Cc2c[nH]c3ccccc23)C(=O)N[C@@H](CCNC(=O)OC(C)(C)C)C(=O)N[C@@H](Cc2cn(CC(=O)O)c3ccccc23)C(=O)N1C` [Example 20020] ({CH2CO}-[Phe(4-F)][Pip]DP[Dap](Boc)L[Hyp]W[Dab](Boc)[Trp(1-CH2COOH)][NMeNle][NMeNle]LC-NH2; thioether N-14): 6.9 nM; `CCCC[C@H]1C(=O)N(C)[C@@H](CCCC)C(=O)N[C@@H](CC(C)C)C(=O)N[C@H](C(=O)NCC(N)=O)CSCC(=O)N[C@@H](Cc2ccc(O)cc2)C(=O)N(C)[C@@H](C)C(=O)N[C@@H](CC(N)=O)C(=O)N2CCC[C@H]2C(=O)N[C@@H](CNC(=O)NCC(c2ccccc2)c2ccccc2)C(=O)N[C@@H](CC(C)C)C(=O)N2C[C@H](O)C[C@H]2C(=O)N[C@@H](Cc2c[nH]c3ccccc23)C(=O)N[C@@H](CCNC(=O)NCC(c2ccccc2)c2ccccc2)C(=O)N[C@@H](Cc2cn(CC(=O)O)c3ccccc23)C(=O)N1C` [Example 1042] ({CH2CO}-Y[NMeA]NP[Dap]([CO-NHCH2CHPh2])L[Hyp]W[Dab]([CO-NHCH2CHPh2])[Trp(1-CH2COOH)][NMeNle][NMeNle]LCG-NH2; thioether N-14): 11.4 nM; `CCCCCCCCCC(=O)NCC[C@@H]1NC(=O)[C@H](Cc2c[nH]c3ccccc23)NC(=O)[C@@H]2C[C@@H](O)CN2C(=O)[C@H](CC(C)C)NC(=O)[C@H](CNC(=O)CCCCCCCCC)NC(=O)[C@@H]2CCCN2C(=O)[C@H](CC(N)=O)NC(=O)[C@H](C)N(C)C(=O)[C@H](Cc2ccc(O)cc2)NC(=O)CSC[C@@H](C(=O)NCC(N)=O)NC(=O)[C@H](CC(C)C)NC(=O)[C@H](CCCC)N(C)C(=O)[C@H](CCCC)N(C)C(=O)[C@H](Cc2cn(CC(=O)OC)c3ccccc23)NC1=O` [Example 1004] ({CH2CO}-Y[NMeA]NP[Dap](Decanoyl)L[Hyp]W[Dab](Decanoyl)[Trp(1-CH2CO2Me)][NMeNle][NMeNle]LCG-NH2; thioether N-14): greater than 10000 nM.
To `CCCC[C@H]1C(=O)N(C)[C@@H](CCCC)C(=O)N[C@@H](CC(C)C)C(=O)N[C@H](C(=O)NCC(N)=O)CSCC(=O)N[C@@H](Cc2ccc(O)cc2)C(=O)N(C)[C@@H](C)C(=O)N[C@@H](CC(N)=O)C(=O)N2CCC[C@H]2C(=O)N[C@@H](CNC(=O)N(C)C)C(=O)N[C@@H](CC(C)C)C(=O)N2C[C@H](O)C[C@H]2C(=O)N[C@@H](Cc2c[nH]c3ccccc23)C(=O)N[C@@H](CCNC(=O)N(C)C)C(=O)N[C@@H](Cc2cn(CC(=O)O)c3ccccc23)C(=O)N1C` [Example 1032] ({CH2CO}-Y[NMeA]NP[Dap]([CO-NMe2])L[Hyp]W[Dab]([CO-NMe2])[Trp(1-CH2COOH)][NMeNle][NMeNle]LCG-NH2; thioether N-14) belongs 0.74 nM.
